Data reported in article PMC6263154 (Bioorganic & medicinal chemistry letters, 2018).

Tests used:
M. abscessus infection = settings: mouse model of M. abscessus infection, intrapulmonary delivery; cited from earlier work
CYP2B6 = biological target: T1, CYP2B6 (Homo sapiens, UniProt P20813); experiment: CYP inhibition, CYP2B6; assay type: biochemical
T1 sequence (P20813 1-491): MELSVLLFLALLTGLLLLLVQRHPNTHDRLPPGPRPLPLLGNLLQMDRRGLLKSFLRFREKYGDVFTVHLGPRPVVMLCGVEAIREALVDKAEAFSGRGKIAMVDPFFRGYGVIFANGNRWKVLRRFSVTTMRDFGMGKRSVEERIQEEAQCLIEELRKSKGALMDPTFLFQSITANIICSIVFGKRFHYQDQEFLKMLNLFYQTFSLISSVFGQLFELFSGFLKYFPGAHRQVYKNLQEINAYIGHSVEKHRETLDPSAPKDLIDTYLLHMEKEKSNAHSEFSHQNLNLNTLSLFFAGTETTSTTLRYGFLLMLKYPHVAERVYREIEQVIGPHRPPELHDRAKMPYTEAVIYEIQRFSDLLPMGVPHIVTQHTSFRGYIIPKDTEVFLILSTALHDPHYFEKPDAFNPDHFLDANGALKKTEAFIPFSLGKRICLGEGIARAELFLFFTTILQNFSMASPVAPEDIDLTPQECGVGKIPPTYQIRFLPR

CYP3A4 = CYP3A4 (Homo sapiens, UniProt P08684); experiment: CYP inhibition, CYP3A4; assay type: biochemical
Sequence of CYP3A4 (P08684 whole entry): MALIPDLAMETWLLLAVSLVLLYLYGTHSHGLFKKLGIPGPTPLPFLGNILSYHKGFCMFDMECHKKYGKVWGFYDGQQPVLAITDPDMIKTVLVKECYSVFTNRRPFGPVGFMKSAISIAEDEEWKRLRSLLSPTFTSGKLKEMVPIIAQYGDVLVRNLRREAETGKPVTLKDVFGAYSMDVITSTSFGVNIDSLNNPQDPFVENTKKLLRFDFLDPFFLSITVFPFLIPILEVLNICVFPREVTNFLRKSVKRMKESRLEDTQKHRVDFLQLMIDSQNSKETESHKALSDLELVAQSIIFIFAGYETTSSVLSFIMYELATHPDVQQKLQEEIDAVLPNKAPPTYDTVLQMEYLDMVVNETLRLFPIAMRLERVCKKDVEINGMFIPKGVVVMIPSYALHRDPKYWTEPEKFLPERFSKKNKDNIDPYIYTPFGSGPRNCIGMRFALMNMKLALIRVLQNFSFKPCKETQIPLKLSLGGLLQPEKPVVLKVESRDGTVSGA

[1] = test system: Mycobacterium avium complex; experiment: MIC against Mycobacterium avium complex; assay type: cell-based; settings: MAC; listed as CRS400393
Mabs = settings: for 3 days; cited from earlier work
[2] = design: species or system mice; settings: mouse, in vivo
mmpL3 = settings: in both Mabs and Mtb; cited from earlier work
[3] = test system: CYP2B6, CYP2C8, CYP2C9, CYP2C19, CYP2D6, CYP3A4; experiment: CYP inhibition, in vitro panel of six common isoforms; assay type: biochemical; settings: human
[4] = Cytotoxicity towards HepG2 cell line; assay type: cell-based; settings: human, HepG2 cells

CC12CC3CC(C)(C1)CC(C(=O)Nc1nc4ccc(OC(F)(F)F)cc4s1)(C3)C2 [CRS400226]
in vivo efficacy (M. abscessus infection): demonstrated in vivo efficacy

CC12CCCC(C(=O)Nc3nc4cc(Cl)cc(Cl)c4s3)(CCC1)C2 [Compound 43]
inhibition at 10 µM (CYP2B6): ≤ 50% | inhibition at 10 µM (CYP3A4): ≤ 50% | MIC against Mycobacterium avium complex [1]: 1 to 2 µg/mL | time kill: effect against Mabs (Mabs): bacteriostatic

CC12CCCC(C(=O)Nc3nc4ccc(OC(F)(F)F)cc4s3)(CCC1)C2 [Compound 52]
inhibition at 10 µM (CYP2B6): ≤ 50% | inhibition at 10 µM (CYP3A4): ≤ 50%

CC1CC(C(=O)Nc2nc3c(F)cc(F)cc3s2)CC(C)(C)C1 (stereo not drawn) [Compound 18]
single dose toxicity observation [2]: All mice appeared normal with no abnormal behavior observed | effect on transfer of mycolic acids to cell envelope acceptors (mmpL3): affect the transfer of mycolic acids

CC1CC(C(=O)Nc2nc3ccc(OC(F)(F)F)cc3s2)CC(C)(C)C1 (stereo not drawn) [Compound 32]
IC50 [3]: > 20 µM | IC50 [4]: > 100 µM | effect on transfer of mycolic acids to cell envelope acceptors (mmpL3): affect the transfer of mycolic acids
